# Test results: publication PMC6537213, “Ellagic acid microspheres restrict the growth of Babesia and Theileria in vitro and Babesia microti in vivo” (Parasites & Vectors, 2019)
# Values joined by “and” are separate entries in the source; they are usually repeats but may differ in a detail not shown here. Equal entries are not always repeated.
# Tests used:
# [1] = test system: Babesia bovis (Texas strain); assay: in vitro growth inhibition assay (SYBR Green I fluorescence), single drug and 1:1 combination; assay type: cell-based; details: B. bovis in vitro culture, 4 days
# Description: (§1) A microaerophilic stationary-phase culture system was used to maintain Babesia parasite cultures for a long time. Briefly, B. caballi (USDA strain) was grown using equine red blood cells (RBCs) in GIT medium supplemented with 40% equine serum. Theileria equi (USDA strain) was grown in equine RBCs in Medium 199 (M199; Sigma-Aldrich, Tokyo) supplemented with 40% equine serum, and hypoxanthine (MP Biomedicals, Santa Ana, CA, USA) at a final concentration of 13.6 μg/ml was used as a vital supplement. Babesia bovis (Texas strain) and B. bigemina (Argentina strain) were grown in bovine RBCs in M199 medium supplemented with 40% bovine serum. Meanwhile, B. divergens (Germany strain) was grown in bovine RBCs in medium RPMI 1640 (Sigma-Aldrich, Tokyo) supplemented with 40% bovine serum. All media included 60 U/ml penicillin G, 60 μg/ml streptomycin and 0.15 μg/ml amphotericin B (Sigma-Aldrich, St. Louis, MO, USA) to prevent bacterial contamination. The cultures were incubated at 37 °C in a humidified chamber with an atmosphere of 5% CO2, 5% O2 and 90% N2. Babesia microti (Munich strain) was recovered from − 80 °C stock, intraperitoneally injected in two 8-week old female BALB/c mice (Clea Japan, Tokyo, Japan), and the parasitemia was monitored every 2 days. The mice were euthanized using an anesthesia system containing isoflurane after parasitemia reached approximately 30%, and blood was collected by cardiac puncture to initiate the in vivo experiment. The animal experiment was conducted in accordance with the Regulations for Animal Experiments of Obihiro University of Agriculture and Veterinary Medicine, Japan (animal experiment accession number: 290168).
# (§2) Assays were performed in accordance with the previously described protocol. Briefly, B. bovis, B. bigemina, B. divergens, B. caballi and T. equi cultures were harvested and adjusted to 1% parasitemia with fresh RBCs to start the inhibition assay. The assays were carried out using 96-well microtiter plates where only the 60 inner wells were used, while the peripheral wells were filled with sterile distillate water to reduce evaporation during incubation. In five 96-well plates, a volume of 2.5 µl each of B. bigemina- and B. bovis-iRBCs and 5 µl each of B. divergens-, B. caballi- and T. equi-iRBCs were added to each well in triplicate and mixed with a culture medium containing the drug concentrations to a total volume of 100 µl. Various concentrations of EA, β-CD EA, APSP EA, DA, CF and AQ were dissolved in a culture medium using two-fold dilution. Wells containing DMSO at a final concentration of 0.4% and iRBCs were used as a positive control, while wells with non-infected RBCs and culture medium were used as a negative control. Additionally, a drug combination assay was performed in parallel with the single drug assay at a constant ratio of 1:1, as described previously. […] The plates were incubated in a humidified incubator with 5% CO2, 5% O2 and 90% N2 for 4 days without changing the medium. On day 4, 100 µl of a lysis buffer containing 2 × SG1 was added to each well. The plates were wrapped with aluminum foil to avoid direct light exposure and incubated at room temperature. After 6 h, fluorescence values were measured using a fluorescence spectrophotometer (Fluoroskan Ascent; Thermo LabSystems, Oceanside, CA, USA) with excitation and emission wavelengths of 485 and 518 nm, respectively. The fluorescence data were subtracted from the negative control and used to calculate the IC50. To calculate the degree of association, the growth-inhibition values obtained were entered into CompuSyn software, based on the combination index (CI) values. […] The experiments were repeated three times.
# [2] = test system: Theileria equi (USDA strain); assay: as above; assay type: cell-based; details: T. equi in vitro culture, 4 days
# Description: as §1, §2
# [3] = test system: B. bigemina (Argentina strain); assay: as above; assay type: cell-based, Babesia bigemina; details: B. bigemina in vitro culture, 4 days
# Description: as §1
# (§3) Assays were performed in accordance with the previously described protocol. Briefly, B. bovis, B. bigemina, B. divergens, B. caballi and T. equi cultures were harvested and adjusted to 1% parasitemia with fresh RBCs to start the inhibition assay. The assays were carried out using 96-well microtiter plates where only the 60 inner wells were used, while the peripheral wells were filled with sterile distillate water to reduce evaporation during incubation. In five 96-well plates, a volume of 2.5 µl each of B. bigemina- and B. bovis-iRBCs and 5 µl each of B. divergens-, B. caballi- and T. equi-iRBCs were added to each well in triplicate and mixed with a culture medium containing the drug concentrations to a total volume of 100 µl. Various concentrations of EA, β-CD EA, APSP EA, DA, CF and AQ were dissolved in a culture medium using two-fold dilution. Wells containing DMSO at a final concentration of 0.4% and iRBCs were used as a positive control, while wells with non-infected RBCs and culture medium were used as a negative control. Additionally, a drug combination assay was performed in parallel with the single drug assay at a constant ratio of 1:1, as described previously. […] The plates were incubated in a humidified incubator with 5% CO2, 5% O2 and 90% N2 for 4 days without changing the medium. On day 4, 100 µl of a lysis buffer containing 2 × SG1 was added to each well. The plates were wrapped with aluminum foil to avoid direct light exposure and incubated at room temperature. After 6 h, fluorescence values were measured using a fluorescence spectrophotometer (Fluoroskan Ascent; Thermo LabSystems, Oceanside, CA, USA) with excitation and emission wavelengths of 485 and 518 nm, respectively. The fluorescence data were subtracted from the negative control and used to calculate the IC50. […]
# [4] = test system: B. divergens (Germany strain); assay: as above; assay type: cell-based, Babesia divergens; details: B. divergens in vitro culture, 4 days
# Description: as §1, §3
# B. caballi (USDA strain) = assay: as above; assay type: cell-based, Babesia caballi; details: B. caballi in vitro culture, 4 days
# Description: as §1, §3
# [5] = test system: Madin-Darby bovine kidney (MDBK) cell line; assay: cytotoxicity assay (CCK-8); assay type: cell-based; details: for EC50: MDBK cells, 24 h exposure, CCK-8; for inhibition of cell viability: 100 µM, separate assay
# Description: (§4) The MDBK cell line was maintained in 75 cm^2 culture flasks with Minimum Essential Medium Eagle (MEM; Gibco, Grand Island, NY, USA), while Dulbecco’s Modified Eagle’s Medium (DMEM; […] Each medium was supplemented with 10% fetal bovine serum, 0.5% penicillin/streptomycin (Gibco), and an additional 1% glutamine. Every 3 to 4 days, the medium was changed, and the cells were incubated until approximately 80% confluent. The cells were free from mycoplasma contamination after being checked by staining with 4,6-diamidino-2-phenylindole dihydrochloride (DAPI; Sigma-Aldrich, St. Louis). The cell detachment from the culture flask was done using TrypLE^TM Express (Gibco) after washing two times with Dulbecco’s phosphate-buffered saline (DPBS). Subsequently, viable cells were counted using a Neubauer Improved C-Chip (NanoEnTek Inc., Seoul, Korea) after staining with 0.4% trypan blue solution. The drug-exposure viability assay was performed in accordance with the recommendation for the Cell Counting Kit-8 (CCK-8; Dojindo, Kumamoto, Japan). Briefly, in a 96-well plate, 100 µl of cells at a density of 5 × 10^4 cells/ml were seeded per well and allowed to attach to the plate for 24 h at 37 °C in a humidified incubator with 5% CO2. Ten microliters of drug diluted two-fold were added to each well to a final concentration of 0.781 to 800 µM in triplicate. Wells with only a culture medium were used as blanks, while wells containing cells and a medium with 0.5% DMSO were used as positive controls. Drug exposure lasted for 24 h. After 24 h, 10 µl of CCK-8 was added, and the plate was further incubated for 3 h. Absorbance was measured at 450 nm using a microplate reader.
# [6] = test system: human foreskin fibroblast (HFF) cell line; assay: cytotoxicity assay (CCK-8); assay type: cell-based; details: for inhibition of cell viability: HFF, 100 µM, separate assay; for EC50: HFF cells, 24 h exposure, CCK-8
# Description: as §4
# [7] = test system: mouse embryonic fibroblast (NIH/3T3) cell line; assay: cytotoxicity assay (CCK-8); assay type: cell-based; details: for EC50: NIH/3T3 cells, 24 h exposure, CCK-8; for inhibition of cell viability: NIH/3T3, 100 µM, separate assay
# Description: as §4
# [8] = test system: Babesia microti (Munich strain); assay: in vivo growth inhibition and drug combination assays in B. microti-infected BALB/c mice; details: for peak parasitemia level: 5 days
# Description: as §1
# In vivo growth inhibition assays of EA, β-CD EA and APSP EA were performed in B. microti-infected BALB/c mice in accordance with the previous protocol in two separate trials. […] The mice in groups 2–8 were intraperitoneally (i.p.) injected with 0.5 ml of inoculum (1 × 10^7 B. microti-iRBCs). Group 1 was left uninfected and untreated as a negative control. When the average parasitemia in all mice reached 1%, drug treatment was initiated for 5 consecutive days. […] DA at a concentration of 25 mg/kg body weight (BW) was administrated i.p. to the third group as a reference drug control.
# B. microti = assay: nested PCR detection of B. microti ss-rRNA gene in blood of treated mice; assay type: in vivo, Babesia microti; details: day 42
# [9] = Babesia bovis, in Bos taurus, 96 h
# [10] = EC50 NIH/3T3 / IC50 B. bigemina
# [11] = EC50 NIH/3T3 / IC50 B. divergens
SMILES,"IC50 [1, 9] [nM]","IC50 ([2]; Theileria equi, 96 h) [nM]","IC50 ([3]; Babesia bigemina, 96 h) [nM]","IC50 ([4]; Babesia divergens, 96 h) [nM]","IC50 (B. caballi (USDA strain); Babesia caballi, 96 h) [nM]","EC50 ([5]; Bos taurus, MDBK, 24 h) [nM]",Selective indices MDBK ([5]; EC50 MDBK / IC50 B. bigemina),Selective indices MDBK ([5]; EC50 MDBK / IC50 B. caballi),Selective indices MDBK ([5]; EC50 MDBK / IC50 B. divergens),inhibition of cell viability ([5]; MDBK),Selective indices HFF ([6]; EC50 HFF / IC50 B. bigemina),Selective indices HFF ([6]; EC50 HFF / IC50 B. caballi),Selective indices HFF ([6]; EC50 HFF / IC50 B. divergens),Selective indices HFF ([6]; EC50 HFF / IC50 T. equi),inhibition of cell viability [6],EC50 ([6]; Homo sapiens) [nM],"Selective indices NIH/3T3 [7, 10]",Selective indices NIH/3T3 ([7]; EC50 NIH/3T3 / IC50 B. caballi),"Selective indices NIH/3T3 [7, 11]",Selective indices NIH/3T3 ([7]; EC50 NIH/3T3 / IC50 T. equi),other results
"O=C1C(O)=C([C@H]2CC[C@H](c3ccc(Cl)cc3)CC2)C(=O)c2ccccc21 [AQ, atovaquone]",39 ± 2,95 ± 65.5,701 ± 40,38 ± 2,102 ± 14.1,> 100000,˃ 12.7,˃ 30.4,˃ 18.5,did not show any inhibition,˃ 12.7,˃ 30.4,˃ 18.5,˃ 13.4,did not show any inhibition,> 100000,˃ 12.7,˃ 30.4,˃ 18.5,˃ 13.4,"Selective indices MDBK ([5]; EC50 MDBK / IC50 T. equi): ˃ 13.4; EC50 ([7]; Mus musculus, NIH3T3): > 100000 nM; inhibition of cell viability [7]: did not show any inhibition; day p.i. from which parasitemia was undetectable by microscopic examination ([8]; second assay, 20 mg/kg AQ): 15 day p.i.; peak parasitemia level ([8]; second assay, 20 mg/kg AQ oral, DDW control 58.3%): 4.3%; parasite DNA in blood (nPCR) (B. microti; 20 mg/kg AQ): not detected"
"CC(C)/N=c1\cc2n(-c3ccc(Cl)cc3)c3ccccc3nc-2cc1Nc1ccc(Cl)cc1 [CF, clofazimine]",8240 ± 1700,2880 ± 900,5730 ± 1900,13800 ± 4300,7950 ± 1800,34000 ± 3400,6.1,4.4,2.5,,˃ 17.5,˃ 12.6,˃ 7.2,˃ 34.7,,> 100000,˃ 17.5,˃ 12.6,˃ 7.2,˃ 34.7,"Selective indices MDBK ([5]; EC50 MDBK / IC50 B. bovis): 4.2; Selective indices HFF ([6]; EC50 HFF / IC50 B. bovis): ˃ 12.1; Selective indices NIH/3T3 ([7]; EC50 NIH/3T3 / IC50 B. bovis): ˃ 12.1; EC50 ([7]; Mus musculus, NIH3T3): > 100000 nM; day p.i. from which parasitemia was undetectable by microscopic examination ([8]; second assay, 20 mg/kg CF): 16 day p.i.; peak parasitemia level ([8]; second assay, 20 mg/kg CF oral, DDW control 58.3%): 4.9%"
"CC(=O)NCC(=O)O.CC(=O)NCC(=O)O.N=C(N)c1ccc(N=NNc2ccc(C(=N)N)cc2)cc1 [DA, diminazene aceturate]",,,,,,,,,,did not show any inhibition,,,,,did not show any inhibition,,,,,,"IC50 [1]: 350 ± 60 nM; IC50 [2]: 710 ± 50 nM; IC50 [3]: 680 ± 90 nM; IC50 [4]: 430 ± 50 nM; IC50 (B. caballi (USDA strain)): 22 nM and 20 nM; EC50 [5]: > 100000 nM; EC50 [6]: > 100000 nM; inhibition of cell viability [7]: did not show any inhibition; EC50 [7]: > 100000 nM; peak parasitemia level ([8]; first assay, 25 mg/kg DA i.p., peak on day 8, DDW control 57.7%): 5.2%; day p.i. from which parasitemia was undetectable by microscopic examination ([8]; second assay, 25 mg/kg DA): 13 day p.i.; peak parasitemia level ([8]; second assay, 25 mg/kg DA i.p., DDW control 58.3%): 3.9%; parasite DNA in blood (nPCR) (B. microti; 25 mg/kg DA): not detected"
